ChEMBL document CHEMBL3886984, “Tetrahydroimidazo(1,5-D)[1,4]oxazepine derivative” (2016)

Biological target: Metabotropic glutamate receptor 2 (Homo sapiens, UniProt Q14416)
Experiment: [35S]GTPgammaS Binding Assay: The frozen cell membrane fraction prepared as described above was thawed before use, and the resultant was diluted with a buffer for a binding assay (final concentrations: 20 mM HEPES, 100 mM NaCl, 1 mM MgCl2, 3 uM GDP, 300 ug/mL saponin, 0.1% BSA). The compound of each example was added to a cell membrane fraction containing 1.8 to 3 ug/assay of membrane protein on a plate, followed by incubation at room temperature for 30 minutes. Thereafter, with glutamic acid (in a final concentration of 10 uM) added thereto, incubation was performed at room temperature for 15 minutes, and thereafter, [35S]GTPγS (in a final concentration of 0.8 kBq) and 588 ug WGA-SPA beads were added thereto, followed by incubation at room temperature for 1 hour. After the incubation, the plate was subjected to the centrifugal separation at 2,500 rpm and room temperature, and then, membrane cell binding radioactivity was measured with a top count. A [35S]GTPγS binding amount obtained in the presence of glutamic acid was defined as specific binding. On the basis of ratios of inhibiting the specific binding at various concentrations of the compounds of the respective examples, inhibition curves were obtained. […]
Assay type: functional

Chain of Metabotropic glutamate receptor 2 (Q14416 whole entry): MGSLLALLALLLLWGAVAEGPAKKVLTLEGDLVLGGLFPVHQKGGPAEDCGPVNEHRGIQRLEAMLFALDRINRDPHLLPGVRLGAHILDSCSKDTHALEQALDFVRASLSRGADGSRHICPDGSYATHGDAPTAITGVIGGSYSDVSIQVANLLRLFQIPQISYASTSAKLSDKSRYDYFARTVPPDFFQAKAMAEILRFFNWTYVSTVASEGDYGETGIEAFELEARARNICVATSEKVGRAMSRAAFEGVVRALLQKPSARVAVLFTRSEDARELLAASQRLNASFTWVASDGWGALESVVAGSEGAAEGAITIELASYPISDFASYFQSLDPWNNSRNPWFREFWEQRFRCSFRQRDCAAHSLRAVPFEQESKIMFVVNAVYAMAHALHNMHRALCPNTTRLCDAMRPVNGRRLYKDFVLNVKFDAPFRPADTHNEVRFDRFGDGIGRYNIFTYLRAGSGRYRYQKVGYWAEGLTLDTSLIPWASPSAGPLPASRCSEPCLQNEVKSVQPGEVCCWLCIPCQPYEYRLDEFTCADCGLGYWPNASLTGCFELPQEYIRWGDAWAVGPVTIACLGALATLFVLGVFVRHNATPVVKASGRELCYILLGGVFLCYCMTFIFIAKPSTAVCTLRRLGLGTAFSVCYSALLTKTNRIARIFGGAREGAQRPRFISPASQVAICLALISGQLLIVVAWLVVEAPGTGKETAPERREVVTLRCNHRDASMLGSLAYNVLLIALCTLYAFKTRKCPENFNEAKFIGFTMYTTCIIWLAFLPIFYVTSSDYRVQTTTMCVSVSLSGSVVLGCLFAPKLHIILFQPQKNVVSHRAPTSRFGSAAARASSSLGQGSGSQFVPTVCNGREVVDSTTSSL

CCc1ccc(-c2nc(-c3cc(C)nc(C)c3)c3n2C[C@@H](C)OCC3)cc1OC
IC50: 4.2 nM
